Tests used:
M. abscessus [1] = assay: in vitro infection of THP1 monocytic human cell line with M. abscessus; type: cell-based; conditions: for M. abscessus survival rate: THP1 cells, 48H, untreated control 2.7, p=0.005, FIG. 4A
M. tuberculosis = assay: in vitro infection of THP1 monocytic human cell line with M. tuberculosis; type: cell-based; conditions: THP1 cells, untreated control 0.50, p=0.0165, FIG. 4B
M. marinum = M. marinum infection of zebrafish; type: in vivo; conditions: zebrafish infected by M. marinum; FIG. 4C
M. abscessus [2] = conditions: zebrafish, in vivo
M. abscessus [3] = assay: M. abscessus in liquid culture (absence of THP1 cells); type: cell-based; conditions: liquid culture medium, no THP1 cells; Treprostinil 50 μM; versus untreated; FIG. 6
[4] = system: zebrafish homolog of the EP2 receptor (EP2a); assay: CRISPR EP2a KO zebrafish infected with M. abscessus; type: in vivo; conditions: M. abscessus infected control and F0 CRISPR EP2a KO zebrafish; FIG. 7
Text: To explore the mechanism of action of Treprostinil in this context, the zebrafish homolog of the EP2 receptor was knocked out using CRISPR and control and KO zebrafish were infected with M. abscessus. […] This definitively confirms that Treprostinil acts via an EP2-mediated host-directed therapeutic effect.

## CCCCC[C@H](O)CC[C@@H]1[C@H]2Cc3cccc(OCC(=O)O)c3C[C@H]2C[C@H]1O [Treprostinil]
M. abscessus [1]; FIG. 5B, THP1 killing of M. abscessus according to legend b39
  dose response of killing of M. abscessus: dose response to the effect was also observed
M. abscessus [1]; 400 nM
  M. abscessus survival rate: 1.07
M. abscessus [1]; 1 μM
  M. abscessus survival rate: 1.24
M. tuberculosis; 400 nM
  M. tuberculosis survival rate: 0.44
M. tuberculosis; 1 μM
  M. tuberculosis survival rate: 0.37
M. marinum
  effect on M. marinum numbers in zebrafish: no observable effect
M. abscessus [2]
  killing of M. abscessus compared with imipenem: significantly more effective than imipenem
M. abscessus [3]
  direct antibiotic effect on M. abscessus growth: no difference in growth
[4]
  Treprostinil rescue in EP2a KO zebrafish: completely abrogated

Source: patent US20260021109A1, “PROSTANOID RECEPTOR AGONISTS AS NON-TUBERCULOUS ANTI-MYCOBACTERIAL AGENTS” (priority 2022, published 2026)
